Experimental data: patent US20250282779A1, “SUBSTITUTED 5,6,7,8-TETRAHYDROPYRIDO[2,3-D]PYRIMIDINE-2,4-DIONES FOR TREATING CARDIAC DISEASES” (MYOKARDIA, INC., priority 2018, published 2025)

Assay: Reactive metabolite identification (glutathione adducts)
Format: in vitro ADME, human
Conditions: for % GSH-adduct (+NADPH, +GSH) relative to parent (−NADPH, −GSH): human liver microsomes, 30 μM, 60 min
Description: Reactive Metabolite Identification
In vitro determination of reactive metabolite formation for small molecules by detection of glutathione adducts formed in vitro in incubations with human liver microsomes fortified with NADPH and glutathione.
Methods: The metabolism of small molecules (30 μM) for glutathione adduct formation was assessed in incubations (200 μL volume, […], 60 min incubation time) with liver microsomes from human (1 mg/mL protein) conducted in potassium phosphate buffer (0.1 M, pH 7.4) for 1 h at 37° C. in a 96-well plate (2 mL well volume) and were performed in the absence of NADPH (used as a negative control) and in the presence of NADPH (1 mM) and glutathione (GSH, 10 mM). Incubations with liver microsomes were performed in a shaking water bath incubator with slow horizontal shaking (30 rpm). To obtain 30 μM incubation concentration of a compound, a 3 mM substrate stock solution in DMSO was used. Final incubation mixtures contained 148 μL of potassium phosphate buffer, 10 μL of liver microsome solution (20 mg protein/mL), 2 μL of the 3 mM substrate solution and where incubations were initiated by the addition of 40 μL of NADPH solution (5 mM dissolved in potassium phosphate buffer). Non-NADPH containing incubations were supplemented with 40 μL of potassium phosphate buffer. Post-incubation, reactions were terminated by adding an equal volume of acetonitrile containing 20 nM carbamazepine internal standard and 3% formic acid. Quenched samples then were centrifuged (4,600 rpm, 4° C., 10-min) after which the supernatants were transferred to a 96-well LC-MS sample analysis plate and diluted with one volume equivalent of HPLC-grade water, and then heat sealed with aluminum foil prior to analysis by liquid chromatography/mass spectrometry (LC-MS/MS).
Analyte identification: The LC-MS/MS detection (with in-line UV detection at 280 nm) of test compounds and potential GSH-adducts was focused on extracting selected ion chromatographic profiles using the protonated molecular ion MH^+ m/z for parent to 4 decimal places, and corresponding protonated molecular ions of predicted GSH-adduct metabolites (m/z MH^+ parent+305.0681 amu) using Xcalibur software (version 2.1.0, Thermo Fisher Scientific, Waltham, MA). Relative GSH-adduct abundance in vitro in liver microsome extracts was assessed using the LC/UV absorbance at 280 nm peak area ratio obtained by using Xcalibur software (version 2.1.0) between the detected GSH-adducts from NADPH- and GSH-fortified incubation extracts and the corresponding LC/UV peak area of the parent compound from minus NADPH containing incubation extracts. The extent of GSH-adduct formation was determined by LC-MS/MS analysis with in-line LC-UV detection at 280 nm by dividing the glutathione-adduct LC/UV peak area by the LC/UV peak area of the corresponding parent HCM-1 NG analog determined from analysis of control (-NAPDH, -GSH) incubations extracts.
Materials: Pooled male human (HLM, 50 donors) liver microsomes were obtained from Bioreclamation IVT (Baltimore, MD). Glutathione (GSH) and NADPH were purchased from Sigma Chemical Co. (St. Louis, MO). All solvents used for liquid chromatography-tandem mass spectrometry (LC-MS/MS) analyses were of chromatographic grade.
LC-MS Conditions: Extracts from incubations with liver microsomes and hepatocytes were characterized by LC-MS and LC-MS/MS on a Thermo Electron LTQ Orbitrap XL mass spectrometer coupled with a Dionex UltiMate 3000 UHPLC containing in-line diode array detection and an OAS-3300TXRS Autosampler (40 μL injection volume). Electrospray ionization (ESI) was employed in the positive ion mode with the needle potential held at 5.01 kV, a sheath flow rate of 35.02, aux flow rate of 9.99, a current of 2.6 uA, a capillary temperature of 325° C., and a capillary voltage of 15.99. Vacuum conditions used were an ion gauge pressure used was 2.33×10^−5 Torr and a convection gauge pressure of 0.90 Torr. […]

## Cc1ccc(F)c([C@@H]2Nc3[nH]c(=O)n(C4CCOCC4)c(=O)c3C[C@@H]2F)c1 [Compound 3, (6S,7S)-6-fluoro-7-(2-fluoro-5-methylphenyl)-3-(tetrahydro-2H-pyran-4-yl)-5,6,7,8-tetrahydropyrido[2,3-d]pyrimidine-2, 4 (1H, 3H)-dione]
  % GSH-adduct (+NADPH, +GSH) relative to parent (−NADPH, −GSH): Not Detected
Single measurement
  Glutathione Adduct Detection in Human Liver Microsome Incubations (single measurement): Not Detected
Triple measurements
  Glutathione Adduct Detection in Human Liver Microsome Incubations, Average (triple measurements): Not Detected

## O=c1[nH]c2c(c(=O)n1C1CCOCC1)CC(F)(F)[C@H](c1cccc(F)c1)N2 [Compound C-1, (S)-6,6-difluoro-7-(3-fluorophenyl)-3-(tetrahydro-2H-pyran-4-yl)-5,6,7,8-tetrahydropyrido[2,3-d]pyrimidine-2,4(1H,3H)-dione, reference compound]
  % GSH-adduct (+NADPH, +GSH) relative to parent (−NADPH, −GSH): Not Detected
